Literature values as cited in patent publication US20260308141A1, “SYNTHESIS OF ORELLANINE” (ONCORENA AB, priority 2023, published 2026).

Key:
[1] = system: human renal cancer cells
[2] = system: human renal cancer cells; remark: listed apart in the source

In the case of `[O-][n+]1ccc(O)c(O)c1-c1c(O)c(O)cc[n+]1[O-]` [Orellanine], the “progress of cell death” value ([1]; after transient exposure to Orellanine) is given as “progressed for many days”, the “killing of human renal cancer cells” value ([1]; cells derived from a primary tumor or from metastatic tumor tissue) is given as “killed them with great efficiency” and the “active uptake and retention by the cells (inferred from progressing cell death)” value ([2]; after transient exposure) is given as “actively taken up and retained by the cells”. The “uptake in human renal cancer cells” value ([2]; human renal cancer cells, primary or metastatic) was “taken up in human renal cancer cells”.
